Measurements taken from US20050170391A1, “TAUT1 transporters expressed in blood brain barrier cells” (Xenoport, Inc., priority 2004, published 2005).

target: T1, TAUT1 (Homo sapiens, UniProt P31641); test: hTAUT1 competition uptake assay in HEK-TREx-TAUT1 cells; type: cell-based; design: expressed in transfected cells; host or cells: HEK-TREx cells (HEK-TREx-TAUT1 inducible line); conditions: HEK-TREx-TAUT1 cells induced with tetracycline; ^3H-GABA radiolabel (taurine: ^3H-taurine per Example 9); 15 min, room temperature
T1 sequence (P31641 1-620): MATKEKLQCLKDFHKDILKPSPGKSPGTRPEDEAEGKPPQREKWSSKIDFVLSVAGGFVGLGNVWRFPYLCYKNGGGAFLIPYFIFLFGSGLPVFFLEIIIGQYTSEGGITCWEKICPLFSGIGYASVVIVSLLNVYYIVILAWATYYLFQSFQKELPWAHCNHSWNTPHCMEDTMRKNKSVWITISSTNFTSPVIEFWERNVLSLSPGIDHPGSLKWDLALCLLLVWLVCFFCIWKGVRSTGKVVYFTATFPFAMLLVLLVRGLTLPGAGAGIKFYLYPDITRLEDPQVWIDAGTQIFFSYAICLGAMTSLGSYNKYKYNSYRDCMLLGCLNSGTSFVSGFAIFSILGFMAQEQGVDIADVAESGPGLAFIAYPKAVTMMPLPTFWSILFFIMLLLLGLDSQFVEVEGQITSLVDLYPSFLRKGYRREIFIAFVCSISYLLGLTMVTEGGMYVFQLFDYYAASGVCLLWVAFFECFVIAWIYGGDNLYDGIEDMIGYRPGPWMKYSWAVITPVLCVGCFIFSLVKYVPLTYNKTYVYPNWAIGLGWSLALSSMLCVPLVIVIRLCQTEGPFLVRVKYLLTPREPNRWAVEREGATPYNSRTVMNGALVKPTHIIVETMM
Procedure: A modified competition uptake assay was developed to determine the ability of a test compound(s) to inhibit the uptake of radiolabeled substrates into HEK-TREx-TAUT1 cells induced to over-express hTAUT. The results are stated as affinities (IC50).
The competition uptake assay were prepared as follows: Compounds were prepared for assay by diluting a 100 mM stock concentration (in DMSO) to the appropriate working concentration. Typically, seven-point dose response curves were prepared starting at a final assay concentration of 1 mM and carrying out three-fold dilutions. These dilutions were prepared by making a working “compound” plate that contained a 2× solution of the desired starting concentration of each test compound in duplicate in row A of a v-bottom microtiter plate. Six 3-fold serial dilutions (from row B to G) were made into the HBSS assay buffer (9.8 g/L Hank's Balance Salts (Sigma; H-1387), 2.6 g/L HEPES (10 mM) (Sigma; H-3375), 0.35 g/L NaHCO3 (4.2 mM) (Sigma; S-6297), pH to 7.4 with 5N NaOH) (with the appropriate amount of DMSO so that the DMSO concentration remains constant at all dilutions). The resulting “compound” plate contained serial dilutions of six compounds in duplicate.
^3H-GABA was diluted into HBSS buffer to a final concentration of 4,000 cpm/μl. Enough solution was prepared to allow addition of 25 μl/well (the final concentration was 100,000 cpm/well).
HEK-TREx-hTAUT cells, plated in 96-well plates and treated with tetracycline (or tet analog (e.g., doxycycline), were removed from the incubator. Growth media was removed from the cells, and the cells were washed twice in room temperature HBSS (100 μl/well/wash) using a 96-well plate washer (Bio Tek ELX405). Alternatively, cells were washed manually with equivalent volumes using a multichannel pipettor. Immediately before beginning the assay, the final 100 μl wash solution was removed from the cells by aspiration.
Using a 96-well pipettor, 25 μl from the “compound” plate was added to each well of the cell plate. The assay was started by adding 25 μl of the ^3H-GABA working solution. The plate was incubated at room temperature for 15 minutes. The assay was stopped by washing the cells four times with ice-cold HBSS buffer using a ELX 405 plate washer (100 μl buffer/well/wash) having an angled buffer dispenser.
Scintillation fluid (200 μl) (Optiphase Supermix (Perkin Elmer) was added to each well, and the plate was covered with a 96-well adhesive plate cover and placed on a shaker for 10 minutes. The plates were counted on a 96-well plate scintillation counter for 60 sec/well. The data were analyzed using a sigmoidal dose response curve-fitting program ((Prism, GraphPad, Inc, San Diego, Calif.; equation: one-site competition).
FIG. 7 depicts the results of a competition experiment using HEK-TREx-TAUT1 cells. ^3H-taurine was used as the substrate and unlabeled taurine was used as the competitor. The competition experiment was performed as described in Example 7. Non-specific uptake was determined by measuring the uptake into cells not induced to express the transporter (“no tet”). […] In control cells, uptake of labeled taurine remained at background levels and was largely unaffected by an excess of unlabeled taurine.
These four compounds, IAA, R,S-Baclofen, GPA, and GABA, were tested in both competition and direct uptake assays. One notable difference in the competition assay format compared to the literature is that ^3H-GABA was used, rather than ^3H-taurine, as the radiolabel. […] Therefore, to develop a competition assay that is as sensitive as possible, ^3H-GABA, a substrate with a much […] affinity, was used.

Question: For `NCC(CC(=O)O)c1ccc(Cl)cc1` (stereo not drawn) [R,S-Baclofen], which IC50 is on record?
Answer: Its IC50 is 1100 µM.

Question: And the pIC50?
Answer: The pIC50 was 3.0.

Question: With `N=C(N)NCCC(=O)O` [GPA] as the molecule, how does the IC50 read?
Answer: The IC50 was 24 µM.

Question: And the pIC50?
Answer: The pIC50 was 4.7.

Question: Which IC50 does the source give for `O=C(O)Cc1c[nH]cn1` [IAA, 4-imidazole acetic acid] here?
Answer: The IC50 was 56 µM.

Question: With `NCCCC(=O)O` [GABA, γ-aminobutyric acid] as the molecule, how does the IC50 read?
Answer: The IC50 was 54 µM.
